The record followed here is paper PMC6945522, “Promoting tau secretion and propagation by hyperactive p300/CBP via autophagy-lysosomal pathway in tauopathy” (Molecular Neurodegeneration, 2020).

For this experiment, the target named is T1, p300 (Homo sapiens, UniProt Q09472).
T1 construct: gene EP300; fragment of p300 (aa 1815–1910), including the PHD, catalytic (HAT), ZZ and TAZ2 domains
T1 sequence (Q09472 1815-1910): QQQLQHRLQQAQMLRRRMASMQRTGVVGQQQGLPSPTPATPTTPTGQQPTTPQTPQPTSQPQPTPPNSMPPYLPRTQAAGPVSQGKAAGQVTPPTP
The experiment is described as follows: HTRF tau acetylation assay with purified p300 core domain; confirmed by orthogonal MMBC assay and DSF binding. Type of experiment: biochemical. On the technique in general: Time-resolved FRET reads energy transfer from a long-lived donor to a nearby acceptor.

pIC50: −log10 of the molar value.

A word on the pIC50: it is the negative decadic logarithm of the IC50, by convention in mol/L. In turn, `Cc1cc2c(c(=S)[nH]1)C(=O)O/C2=C\c1ccco1` [compound 37892, SMDC37892] showed a pIC50 of 4.45.
